Data from PMC5599463, “PK/PD studies on non-selective PDE inhibitors in rats using cAMP as a marker of pharmacological response” (Naunyn-Schmiedeberg's Archives of Pharmacology, 2017).
Where two headings read alike, the source gives them in different places.

What was measured:
cAMP plasma levels = settings: cited from earlier work
[1] = tested on: cAMP levels in rat plasma; experiment: PK/PD (IDR model II) of plasma cAMP in LPS-challenged rats; format: in vivo, Male Wistar rats; settings: for cAMP levels in rat plasma after administration: 40 or 80 mg kg^−1 i.v. with LPS; for IC50: Rattus norvegicus
Experimental: (§1) All compounds were directly dissolved in 0.9% sterile saline and used within 1 day of preparation. The animals were divided into five groups (n = 3–4). […] All injections (1 mL kg^−1) were given to the tail vein of the rat under isoflurane anaesthesia. […] Subsequently, samples were kept on ice and centrifuged for 10 min at 3000×g at 4 °C (EBA 12 R, Hettich, Germany). The individual plasma samples were harvested and stored at −80 °C until analysis.
The levels of cAMP in rat plasma were measured using the same HPLC system and a fluorescence detector (model FL-2485). The analysis was performed after incubation of plasma with 2-chloroacetaldehyde as a derivatization reagent in elevated temperature to form the fluorescing derivative—1,N^6-etheno-cAMP. To 100 μL of plasma (or plasma spiked with water standard solution of cAMP), 15 μL of 2 M 2-chloroacetaldehyde solution and 50 μL of 0.5 M acetate buffer (pH = 4.5) were added to a snap-cap tubes. Samples were then vortex-mixed (Reax top, Heidolph, Germany) for 20 s and incubated at 80 °C for 20 min. Thereafter, the reaction mixture was cooled on ice, the samples were centrifuged (3000×g, 10 min) and 100 μL of supernatants was placed in the autosampler vials. The volume of injection was 50 μL. The separation was performed at isocratic conditions at 35 °C using the mobile phase composed of 20 mM citric-phosphate buffer (pH = 3.2) and methanol mixed at the ratio of 91:9 (v/v) and pumped at a flow rate of 1.3 mL min^−1. The excitation and emission wavelengths were set to 280 and 420 nm, respectively. In these conditions, the retention time of 1,N^6-etheno-cAMP was 6 min.
Changes in plasma cAMP concentrations (CcAMP) over time following each compound administration may be described by the following equation:
1 dCcAMP/dt=kin−kout⋅It⋅CcAMP
3 It=1−Imax⋅Cp^γ/IC50^γ+Cp^γ
The second approach assumes that both compounds under investigation act with different potencies. Based on the results of the in vitro study, an additive interaction model was used (Eq. 4):
I max and γ in Eqs. (3) and (4) were fixed to 1 during fitting procedure.
(§2) The peak cAMP and TNF-α plasma levels following administration of LPS alone or LPS simultaneously with both doses of each compound were compared using a one-way ANOVA and Tukey’s HSD post hoc test. The normality of data distribution was checked by Shapiro–Wilk test. The relationship between decimal logarithms of peak cAMP and TNF-α plasma concentrations was verified by least squares linear regression analysis. All statistical analyses were performed using Statistica v. 12 (StatSoft Inc., USA). The significance level p was set at 0.05.

TNF-α plasma levels = experiment: Plasma TNF-α levels in endotoxemic rats (ELISA); format: in vivo, Male Wistar rats; settings: both doses (40 and 80 mg kg^−1 i.v.) with LPS, 90 min, p < 0.05
Experimental: as §1
Plasma TNF-α levels were measured by rat TNF-α Quantikine ELISA kit (R&D Systems, Minneapolis, MN, USA) according to the manufacturer’s protocol. The limit of quantification was 12.5 pg mL^−1.
as §2

[2] = Pharmacokinetics after i.v. administration to endotoxemic rats (compartmental modelling); format: in vivo, Male Wistar rats
Experimental: as §1
Then, the samples were extracted with 3 mL of dichloromethane for 20 min on a shaker (VXR Vibrax, IKA, Germany). Subsequently, all tubes were centrifuged (2000×g, 15 min) and organic layers were transferred to new glass tubes and evaporated under gentle stream of nitrogen at 37 °C. Dry residues were dissolved in 100 μL of mobile phase and placed in the autosampler vials. The volume of injection was set to 50 μL. The HPLC system (LaChrom Elite, Merck-Hitachi, Darmstadt, Germany) consisted of an L-2130 pump, an L-2200 autosampler, an L-2450 diode array detector and an L-2350 column oven. EZChrome Elite v. 3.2 (Merck-Hitachi) software was used for data acquisition. The analysis was performed on a LiChrospher 100 RP-18 column (250 mm × 4 mm) with a particle size of 5 μm protected with a LiChroCART (4 mm × 4 mm) guard column (Merck, Germany). The mobile phase consisted of dioxan, acetonitrile and aqueous solution of acetic acid (pH = 3.0) mixed at the ratio of 6.5:6.5:87 (v/v/v), respectively, and pumped at a flow rate of 1.2 mL min^−1. Analytical wavelength was set to 275 nm and temperature of separation was 35 °C.
To this end, one- or two-compartment pharmacokinetic models with linear or Michaelis–Menten type saturable elimination from the central compartment were tested. Both dose levels in each case were simultaneously fitted to obtain a single set of parameters. The final pharmacokinetic models for PTX and (±)-LSF were selected on the basis of visual inspection of the fitting, examination of residuals, parameter precision, Akaike Information Criteria (AIC), Bayesian Information Criteria (BIC) and analysis of the correlation matrix. Pharmacokinetic analysis was performed using Phoenix WinNonlin v. 6.3 (Pharsight Corp, Certara, St. Louis, MO, USA).

[3] = tested on: plasma cAMP concentration; design: method as in Tanahashi et al. [1999]; settings: ref Tanahashi et al. [1999]; cited from earlier work
[4] = biological target: T1, human recombinant PDE7A (hrPDE7A) (Homo sapiens, UniProt Q13946); experiment: PDE-Glo Phosphodiesterase Assay, hrPDE7A inhibition; format: biochemical; settings: for IC50: hrPDE7A, non-linear regression, in vitro
T1 construct: purchased SignalChem, Richmond, Canada
T1 sequence (Q13946 whole entry): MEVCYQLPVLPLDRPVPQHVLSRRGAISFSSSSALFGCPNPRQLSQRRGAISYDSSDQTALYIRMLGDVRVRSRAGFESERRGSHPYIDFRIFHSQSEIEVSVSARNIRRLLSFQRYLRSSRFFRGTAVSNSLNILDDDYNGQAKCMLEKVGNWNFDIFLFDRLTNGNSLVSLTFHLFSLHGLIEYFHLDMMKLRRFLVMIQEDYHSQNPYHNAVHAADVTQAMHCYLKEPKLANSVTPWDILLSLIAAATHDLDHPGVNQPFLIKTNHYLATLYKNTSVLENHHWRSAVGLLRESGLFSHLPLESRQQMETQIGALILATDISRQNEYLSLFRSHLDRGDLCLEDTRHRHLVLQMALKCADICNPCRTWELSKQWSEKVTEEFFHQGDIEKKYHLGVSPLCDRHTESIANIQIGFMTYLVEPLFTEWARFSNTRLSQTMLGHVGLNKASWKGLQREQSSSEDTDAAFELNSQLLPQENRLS
Experimental: (§3) Briefly, 1,5 μl of 1× PDE-Glo reaction buffer containing 10 mU of purified hrPDE4B or hrPDE7A (SignalChem, Richmond, Canada) was pipetted into 384-well plate wells (Thermo Scientific, USA). The tested compounds were dissolved in DMSO, and a serial dilution of the inhibitors was performed using 1× PDE-Glo reaction buffer. Then, 1 μL of diluted inhibitors and 2.5 μL of cAMP solution were added to each well. After 10 min of incubation in 30 °C, 2.5 μL of PDE-Glo™ Termination Buffer and 2.5 μL of PDE-Glo™ Detection Solution were added and the plate was incubated for 20 min at room temperature. Finally, 10 μL of Kinase-Glo® Reagent was pipetted to each well and after 10 min of incubation, the luminescence was measured using a microplate luminometer (POLARstar Omega, BMG LABTECH, Ortenberg, Germany). All data points are the average of two determinations.

[5] = tested on: plasma cAMP concentrations; design: method as in Cheng et al. [1997]; settings: ref Cheng et al. [1997], cited from earlier work; for cAMP levels in mice: 10 times higher dose than that of the PDE4 inhibitors (10 mg kg^−1 p.o.); for plasma cAMP concentrations in mice: 10 mg kg^−1 p.o.
[6] = biological target: T2, human recombinant PDE4B (hrPDE4B) (Homo sapiens, UniProt Q07343); experiment: PDE-Glo Phosphodiesterase Assay, hrPDE4B inhibition; format: biochemical; settings: non-linear regression, in vitro
T2 construct: purchased SignalChem, Richmond, Canada
T2 sequence (Q07343 whole entry): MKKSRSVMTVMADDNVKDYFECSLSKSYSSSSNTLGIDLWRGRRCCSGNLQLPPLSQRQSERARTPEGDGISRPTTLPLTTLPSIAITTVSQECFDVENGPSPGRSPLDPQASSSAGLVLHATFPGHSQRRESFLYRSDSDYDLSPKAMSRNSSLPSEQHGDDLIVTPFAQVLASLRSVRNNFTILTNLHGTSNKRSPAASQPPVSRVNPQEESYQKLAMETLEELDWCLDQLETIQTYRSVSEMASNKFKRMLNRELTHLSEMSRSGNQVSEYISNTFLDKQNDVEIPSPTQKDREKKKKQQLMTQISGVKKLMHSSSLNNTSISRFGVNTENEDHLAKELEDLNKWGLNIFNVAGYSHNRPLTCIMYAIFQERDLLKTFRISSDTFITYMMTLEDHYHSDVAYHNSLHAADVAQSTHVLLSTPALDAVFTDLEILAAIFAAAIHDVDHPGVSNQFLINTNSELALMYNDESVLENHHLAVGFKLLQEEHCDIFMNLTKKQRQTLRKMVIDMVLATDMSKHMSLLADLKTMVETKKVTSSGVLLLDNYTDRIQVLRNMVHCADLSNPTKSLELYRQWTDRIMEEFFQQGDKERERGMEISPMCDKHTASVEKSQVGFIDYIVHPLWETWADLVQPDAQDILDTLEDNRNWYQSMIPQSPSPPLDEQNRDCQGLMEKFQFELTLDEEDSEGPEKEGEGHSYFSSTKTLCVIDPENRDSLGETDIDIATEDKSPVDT
Experimental: as §3, with “The” for “Briefly, 1,5 μl of 1× PDE-Glo reaction buffer containing 10 mU of purified hrPDE4B or hrPDE7A (SignalChem, Richmond, Canada) was pipetted into 384-well plate wells (Thermo Scientific, USA). The”

[7] = design: method as in Wyska et al. [2007]; settings: mice; ref Wyska et al. [2007]; cited from earlier work
[8] = tested on: IL-12-induced murine T helper 1 (Th1) differentiation; design: method as in Bright et al. [1998]; settings: dose-dependent manner; ref Bright et al. [1998]; cited from earlier work
[9] = tested on: plasma cAMP concentrations; experiment: Plasma cAMP in rats with endotoxemia after i.p. theophylline (own unpublished data); format: in vivo; settings: i.p. 50 mg kg^−1, 0.5 h after administration
[10] = Interaction indirect response model II, rats challenged with LPS, i.v., read-out: IC50 (plasma concentration producing 50% of maximum inhibition of cAMP kout), final estimate (CV%)
[11] = interaction IDR model II, endotoxemic rats, read-out: IC50 calculated using PK/PD model after conversion to

Structure (SMILES): CCCSc1nc(N[C@@H]2C[C@H]2c2ccc(F)c(F)c2)c2nnn([C@@H]3C[C@H](OCCO)[C@@H](O)[C@H]3O)c2n1 [ticagrelor]
- levels of cAMP in treated patients (cAMP plasma levels; patients, ref Li et al. [2017]): Elevated levels of cAMP

Structure (SMILES): CC(O)CCCCn1c(=O)c2c(ncn2C)n(C)c1=O (racemic) [(±)-LSF, (±)-1-(5-hydroxyhexyl)-3,7-dimethylpurine-2,6-dione]
- cAMP levels in rat plasma after administration [1]: increase in cAMP levels in rat plasma in a dose-dependent manner
- lower in vivo IC50 value compared to PTX ([1]; PK/PD model, rats): approximately 20%
- IC50 [1, 10]: 3.43 µg/mL
- IC50 [1, 11]: 12.2 µM
- peak cAMP level in comparison with the group receiving LPS only ([1]; dose of 40 mg kg^−1 i.v. with LPS 1 mg kg^−1, p > 0.05): did not increase
- TNF-α concentrations in plasma of endotoxemic rats (TNF-α plasma levels): significant decrease
- VLSF (volume of (±)-LSF compartment), final estimate (CV%) ([2]; (±)-LSF parent drug, i.v. 40 and 80 mg kg^−1, endotoxemic rats, one-compartment Michaelis-Menten model): 1.22 (3.44) L kg^−1
- Km ([2]; male, Wistar, rat, plasma, iv, (±)-LSF parent drug, i.v., endotoxemic rats, read-out: Km (drug concentration at which elimination rate is half-maximal), final estimate (CV%)): 6.02 µg/mL

Structure (SMILES): CN(C(=O)CCCOc1ccc2[nH]c(=O)ccc2c1)C1CCCCC1 [cilostamide]
- plasma cAMP concentration in dogs [3]: no

Structure (SMILES): CC(=O)CCCCn1c(=O)c2c(ncn2C)n(C)c1=O [PTX, 1-(5-oxohexyl)-3,7-dimethylpurine-2,6-dione]
- cAMP plasma levels elevation compared to the placebo group (cAMP plasma levels; healthy subjects, i.v. infusion 300 mg in 1 h, measured 1 h from beginning of infusion, ref Kruuse et al. [2000]): approximately 50%
- cAMP levels in rat plasma after administration [1]: increase in cAMP levels in rat plasma in a dose-dependent manner
- IC50 [1, 10]: 4.48 µg/mL
- IC50 [1, 11]: 16.1 µM
- TNF-α concentrations in plasma of endotoxemic rats (TNF-α plasma levels): significant decrease
- half-life ([2]; male, Wistar, rat, plasma, iv, rats, i.v., read-out: elimination half-life (t0.5)): 16.4 min
- k el ([2]; male, Wistar, rat, plasma, iv, read-out: ke (rate constant for disappearance of parent compound), final estimate (CV%) (converted)): 0.000933 s⁻¹
- IC50 [4]: > 500 µM
- activity as inhibitor of hrPDE7A ([4]; in vitro assay): ineffective

Structure (SMILES): OCCN(CCO)c1nc(N2CCCCC2)c2nc(N(CCO)CCO)nc(N3CCCCC3)c2n1 [dipyridamole]
- cAMP levels in mice [5]: failed to alter cAMP levels significantly

Structure (SMILES): COc1ccc(C2CNC(=O)NC2)cc1O[C@H]1C[C@@H]2CC[C@H]1C2 [CP-80,633]
- plasma cAMP concentrations in mice [5]: increased plasma cAMP concentrations

Structure (SMILES): C[C@@H](O)CCCCn1c(=O)c2c(ncn2C)n(C)c1=O [R-(-)-LSF]
- IC50 [6]: 49.1 µM
- Km [7]: 15.08 mg/L
- Vmax [7]: 2.33 mg/min/kg
- inhibition of IL-12-induced murine Th1 differentiation [8]: inhibited
- IC50 [4]: 266 µM

Structure (SMILES): C[C@H](O)CCCCn1c(=O)c2c(ncn2C)n(C)c1=O [S-(+)-LSF]
- IC50 [6]: 52.5 µM
- IC50 [4]: 328 µM

Structure (SMILES): COc1ccc2[nH]cc(CCNC(C)=O)c2c1 [melatonin]
- cAMP plasma levels in humans (cAMP plasma levels; administered orally, 1 h following administration, ref Zhdanova and Raz [1999]): significantly augmented

Structure (SMILES): CCOC(=O)C1=C[C@]2(CC)CCCN3CCc4c(n1c1ccccc41)[C@@H]32 [vinpocetine]
- cAMP levels in mice [5]: failed to alter cAMP levels significantly

Structure (SMILES): CC(=O)Nc1ccc(-c2c[nH]c(=O)cn2)cc1 [SKF-94,120]
- cAMP levels in mice [5]: failed to alter cAMP levels significantly

Structure (SMILES): CC(C)Cn1c(=O)n(C)c(=O)c2[nH]cnc21 [IBMX, 1-methyl-3-(2-methylpropyl)-7H–purine-2,6-dione]
- IC50 [6]: 46.6 µM
- IC50 [4]: 77.7 µM

Structure (SMILES): COc1ccc(C2CNC(=O)C2)cc1OC1CCCC1 (centres unmarked) [rolipram]
- plasma cAMP concentration in dogs [3]: elevated plasma cAMP concentration in dogs in a dose-dependent manner
- plasma cAMP concentrations in mice [5]: increased plasma cAMP concentrations

Structure (SMILES): CCCOc1ccccc1-c1nc2nn[nH]c2c(=O)[nH]1 [zaprinast]
- cAMP levels in mice [5]: failed to alter cAMP levels significantly

Structure (SMILES): Cn1c(=O)c2[nH]cnc2n(C)c1=O [theophylline]
- plasma levels of cAMP ([5]; mice, orally 100 mg kg^−1, 20 min post-dose): 296.9 pmol/mL
- plasma concentrations of cAMP [9]: 228.22 pmol/mL
